Assay results from patent US10738119B2, “Combination therapy for hepatocellular carcinoma” (Health Research, Inc., priority 2014, dated 2020).
“Also recorded” adds a separate entry of the source.

Columns and labels:
Type in all cases: in vivo, human
HCC patients [1] = assay: Overall survival of HCC patients stratified by greater or smaller decrease in immune parameters after sorafenib treatment
Procedure: FIGS. 15A-15D. […] Overall survival of patients was calculated based on the status of (FIG. 15A) absolute numbers of CD4^+PD-1^+ T cells (FIG. 15B) CD8^+PD-1^+ T cells (FIG. 15C) expression levels of PD-1 (MFI) on CD8^+ T cells (FIG. 15D) absolute numbers of CD4^+Foxp3^+ T cells.
FIGS. 18A-18R. […] Overall survival of patients was calculated based on the status of (FIG. 18A) frequency of CD4^+Foxp3^+ Tregs (FIG. 18B) frequency of GARP^+Foxp3^+ Tregs (FIG. 18C) expression levels of GARP (MFI) on Foxp3^+ Tregs (FIG. 18D) frequency of CTLA-4^+Foxp3^+ Tregs (FIG. 18E) absolute number of CD4^+Foxp3^+ Tregs (FIG. 18F) expression levels of CTLA-4 (MFI) on Foxp3^+ Tregs (FIG. 18G) frequency of CD11b^+CD33^+ MDSC (FIG. 18H) absolute number of CD11b^+CD33^+ MDSC (FIG. 18I) frequency of CD4^+PD-1^+ T cells (FIG. 18J) expression levels of PD-1 (MFI) on CD4^+ T cells (FIG. 18K) frequency of Foxp3^+PD-1^+ T cells (FIG. 18L) absolute number of Foxp3^+PD-1^+ T cells (FIG. 18M) expression levels of PD-1 (MFI) on Foxp3^+CD4^+ T cells (FIG. 18N) frequency of CD8^+PD-1^+ T cells (FIG. 18O) IL-10 (FIG. 18P) TGF-β1 (FIG. 18Q) IFN-γ (FIG. 18R) IL-1β.
(§1) Plasma levels of both pro-inflammatory and immunosuppressive cytokines were determined by ELISA.
(§2) This study was approved by institutional review board of Roswell Park Cancer Institute (RPCI), Buffalo, N.Y. and informed consent was obtained from all participants. Heparinized peripheral blood samples were obtained from HCC patients before the initiation of sorafenib treatment and after four weeks or more of oral sorafenib treatment, through Data Bank and Biorepository at RPCI.

PD-1+ T cells = assay: Multi-parametric flow cytometry of PD-1+ T cells in PBMC of HCC patients pre and post sorafenib treatment; details: pre vs post sorafenib
Procedure: (§3) FACS analysis was performed to measure peripheral blood Treg frequency using APC-H7 anti-CD3, V450 anti-CD4, PE anti-CD127, PE-Cy5 anti-CTLA-4 (BD Biosciences) and PE-Cy7 anti-PD-1, Alexa488 anti-Foxp3 (Biolegend). Detection of surface GARP levels was achieved by using mouse anti-human GARP (Enzo Life Sciences) followed by staining with PE F(ab′)2 goat anti-mouse IgG (Jackson ImmunoResearch Laboratories). Cells were incubated with normal mouse IgG for 10 min prior to surface and intracellular staining. Intracellular analysis for Foxp3 and CTLA-4 was performed after fixation and permeabilization of cells using intracellular staining kit (eBioscience) according to manufacturer's instructions. All samples were acquired on LSRII flow cytometer (BD Biosciences) and analyzed using Flowjo Model Fit (Tree Star).
as §1
This study was approved by institutional review board of Roswell Park Cancer Institute (RPCI), Buffalo, N.Y. and informed consent was obtained from all participants.
(§4) PBMCs were isolated immediately by Ficoll-Paque Plus density gradient centrifugation and cryopreserved. Plasma was isolated and stored at −80° C. and used for measurement of immunosuppressive and immunostimulatory cytokines as described previously. Frequency, phenotype and functionality of immune cells after blocking immune check points were analyzed by multi-parameter flow cytometry.

TGF-β1 = assay: Plasma cytokine ELISA pre and post sorafenib treatment: TGF-β1; details: pre vs post sorafenib
Procedure: (§5) Plasma isolated during PBMC separation was assayed to quantify the level of IFN-γ, IL-10, and TGF-β1 using specific ELISA kits according to the manufacturer's instructions (eBioscience).
as §1, §2, §4

Foxp3+ Tregs = assay: Multi-parametric flow cytometry of Tregs in PBMC of HCC patients pre and post sorafenib treatment; details: pre vs post sorafenib
Procedure: as §3, §1, §2, §4

IL-1β = assay: Plasma cytokine ELISA pre and post sorafenib treatment: IL-1β; details: pre vs post sorafenib, P<0.11, FIG. 17A
Procedure: as §5, §1, §2, §4

CD11b+CD33+ MDSC = assay: Multi-parametric flow cytometry of MDSC in PBMC of HCC patients pre and post sorafenib treatment; details: pre vs post sorafenib
Procedure: MDSC in the peripheral blood were detected using FITC anti-CD11b (eBioscience), PE-Cy5 anti-CD33, APC anti-CD14, V450 anti-HLA-DR (BD Biosciences).
as §1, §2, §4

HCC patients [2] = assay: PD-1 status and survival of HCC patients treated with sorafenib (Example 2)
Text: The individual data points in the figures represent each patient.

HCC patients [3] = assay: Overall survival of HCC patients stratified by greater or smaller decrease in immune parameters after sorafenib treatment; details: log-rank P<0.30, FIG. 18E
IL-10 = assay: Plasma cytokine ELISA pre and post sorafenib treatment: IL-10; details: pre vs post sorafenib
Procedure: as §5, §1, §2, §4

IFN-γ = assay: Plasma cytokine ELISA pre and post sorafenib treatment: IFN-γ; details: pre vs post sorafenib
Procedure: as §5, §1, §2, §4

For `CNC(=O)c1cc(Oc2ccc(NC(=O)Nc3ccc(Cl)c(C(F)(F)F)c3)cc2)ccn1` [sorafenib], the “overall survival, greater decrease in PD-1 expression levels on CD4+ T cells after sorafenib” value (HCC patients [1]; AFT models, AFT β P<0.04) was “better overall survival benefit”, the “overall survival, greater decrease in absolute number of MDSC after sorafenib” value (HCC patients [1]; AFT models, AFT β P<0.05) was “better prognosis; also recorded: significant correlation with overall survival” and the “overall survival, greater decrease in percentage of MDSC after sorafenib” value (HCC patients [1]; AFT models, AFT β P<0.05) was “better prognosis; also recorded: significant correlation with overall survival”. For the same compound, the “overall survival vs absolute numbers of Foxp3+ Tregs post-sorafenib treatment” value (HCC patients [1]; log-rank P<0.01, FIG. 15D) was “statistically significant improvement in overall survival; also recorded: significant correlation with overall survival”, the “overall survival, greater vs smaller decrease in absolute number of PD-1+CD4+ T cells after sorafenib” value (HCC patients [1]; log-rank P<0.04, FIG. 15A) was “significant interaction term; also recorded: significantly improved overall survival rate” and the “overall survival, greater vs smaller decrease in absolute number of CD8+PD-1+ T cells after sorafenib” value (HCC patients [1]; log-rank P<0.04, FIG. 15B) was “significant interaction term; also recorded: significant improvement in overall survival”. The “overall survival, greater vs smaller decrease in PD-1 expression levels on CD8+ T cells after sorafenib” value (HCC patients [1]; log-rank P<0.04, FIG. 15C) was “significant improvement in overall survival”, the “overall survival, greater vs smaller decrease in frequency of CTLA-4+ Tregs after sorafenib” value (HCC patients [1]; log-rank P<0.51, FIG. 18D) was “no significant differences in the overall survival” and the “overall survival vs changes in levels of TGF-β1 after sorafenib” value (HCC patients [1]; log-rank P<0.61, FIG. 18P) was “none of these cytokines showed any significant association; also recorded: non-significant interaction term”. The “overall survival vs changes in levels of IFN-γ after sorafenib” value (HCC patients [1]; log-rank P<0.62, FIG. 18Q) was “none of these cytokines showed any significant association; also recorded: non-significant interaction term”, the “overall survival vs changes in levels of IL-10 after sorafenib” value (HCC patients [1]; log-rank P<0.73, FIG. 18O) was “none of these cytokines showed any significant association; also recorded: non-significant interaction term” and the “overall survival vs changes in levels of IL-1β after sorafenib” value (HCC patients [1]; log-rank P<0.92, FIG. 18R) was “non-significant interaction term”. The “95% CI of change in expression levels (MFI) of PD-1 on CD4+ T cells after sorafenib treatment” value (PD-1+ T cells; FIG. 14B) was −56.51 to −12.09 MFI, the “expression levels (MFI) of PD-1 on CD4+ T cells after sorafenib treatment” value (PD-1+ T cells; P<0.02, FIG. 14B) was “significantly decreased” and the “absolute number of CD4+Foxp3+PD-1+ T cells after sorafenib treatment” value (PD-1+ T cells; P<0.04, FIG. 14C) was “significantly decreased”. The “absolute number of CD8+PD-1+ T cells after sorafenib treatment” value (PD-1+ T cells; P<0.15, FIG. 14E) was “did not show any significant decrease”, the “frequency of CD8+PD-1+ T cells after sorafenib treatment” value (PD-1+ T cells; P<0.20, FIG. 14D) was “did not show any significant decrease” and the “level of expression of PD-1 on CD8+ T cells (MFI) after sorafenib treatment” value (PD-1+ T cells; P<0.31, FIG. 14F) was “did not show any significant decrease”. The “frequency of CD4+PD-1+ T cell after sorafenib treatment” value (PD-1+ T cells; n=19, P<0.01, FIG. 14A) was “significantly reduced”, the “95% CI of change in levels of TGF-β1 after sorafenib treatment” value (TGF-β1; FIG. 17C) was −151.50 to −48.55 and the “plasma levels of TGF-β1 after sorafenib treatment” value (TGF-β1; P<0.03, FIG. 17C) was “significant decrease”. The “95% CI of change in frequency of CD3+CD4+Foxp3+ Tregs after sorafenib treatment” value (Foxp3+ Tregs; FIG. 16A) was −0.44 to −1.16, the “95% CI of change in absolute numbers of CD3+CD4+Foxp3+ Tregs after sorafenib treatment” value (Foxp3+ Tregs; FIG. 16B) was −9.48 to −3.55 and the “95% CI of change in frequency of Foxp3+CTLA-4+ Tregs after sorafenib treatment” value (Foxp3+ Tregs; FIG. 16C) was −3.18 to −0.82. The “95% CI of change in absolute number of Foxp3+CTLA-4+ Tregs after sorafenib treatment” value (Foxp3+ Tregs; FIG. 16D) was −8.42 to −6.32, the “frequency of CD3+CD4+Foxp3+ Tregs after sorafenib treatment” value (Foxp3+ Tregs; P<0.02, FIG. 16A) was “significant decrease” and the “frequency of Foxp3+CTLA-4+ Tregs after sorafenib treatment” value (Foxp3+ Tregs; P<0.02, FIG. 16C) was “Marked reduction”. The “absolute numbers of CD3+CD4+Foxp3+ Tregs after sorafenib treatment” value (Foxp3+ Tregs; P<0.05, FIG. 16B) was “significant decrease”, the “absolute number of Foxp3+CTLA-4+ Tregs after sorafenib treatment” value (Foxp3+ Tregs; P<0.05, FIG. 16D) was “Marked reduction” and the “plasma levels of IL-1β after sorafenib treatment” value (IL-1β) was “did not show any significant decrease”. The “frequency of CD11b+CD33+ MDSC after sorafenib treatment” value (CD11b+CD33+ MDSC; P<0.61, FIG. 16E) was “did not significantly impact; also recorded: did not have any significant influence”, the “absolute number of CD11b+CD33+ MDSC after sorafenib treatment” value (CD11b+CD33+ MDSC; P<0.92, FIG. 16F) was “did not significantly impact; also recorded: did not have any significant influence” and the mean survival time (HCC patients [2]; group where PD-1 was decreased) was 688 days. The mean survival (HCC patients [2]; group which did not show a decrease in PD-1) was 168 days, the “overall survival, greater vs smaller decrease in absolute number of CTLA-4+ Tregs after sorafenib” value (HCC patients [3]) was “no significant differences in the overall survival” and the “95% CI of change in levels of IL-10 after sorafenib treatment” value (IL-10; FIG. 17B) was −63.30 to −4.9. The “plasma levels of IL-10 after sorafenib treatment” value (IL-10; P<0.03, FIG. 17B) was “significant decrease”, the “95% CI of change in levels of IFN-γ after sorafenib treatment” value (IFN-γ; FIG. 17D) was −1.07 to 23.64 and the “plasma levels of IFN-γ after sorafenib treatment” value (IFN-γ; P<0.04, FIG. 17D) was “concomitant increase; also recorded: significantly increased”.
